According to ChEMBL document CHEMBL1201861, “Genomics of Drug Sensitity in Cancer screening data, Wellcome Trust Sanger Institute”:

Columns and labels:
Assay in all cases: cells
KARPAS-45 = type: functional, cell-based; conditions: Homo sapiens
Description: SANGER: Inhibition of human KARPAS-45 cell growth in a cell viability assay.

VA-ES-BJ = type: functional, cell-based, Homo sapiens; conditions: Homo sapiens, VA-ES-BJ
Description: SANGER: Inhibition of human VA-ES-BJ cell growth in a cell viability assay.

NCI-H226 = type: functional, cell-based, Homo sapiens; conditions: Homo sapiens, NCI-H226
Description: SANGER: Inhibition of human NCI-H226 cell growth in a cell viability assay.

CTV-1 = type: functional, cell-based; conditions: Homo sapiens
Description: SANGER: Inhibition of human CTV-1 cell growth in a cell viability assay.

KS-1 = type: functional, cell-based, Homo sapiens; conditions: Homo sapiens, KS-1
Description: SANGER: Inhibition of human KS-1 cell growth in a cell viability assay.

IST-SL1 = type: functional, cell-based, Homo sapiens; conditions: Homo sapiens, IST-SL1
Description: SANGER: Inhibition of human IST-SL1 cell growth in a cell viability assay.

KE-37 = type: functional, cell-based; conditions: Homo sapiens
Description: SANGER: Inhibition of human KE-37 cell growth in a cell viability assay.

KU812 cell line = type: functional, cell-based; conditions: Homo sapiens
Description: SANGER: Inhibition of human KU812 cell growth in a cell viability assay.

ML-2 = type: functional, cell-based; conditions: Homo sapiens
Description: SANGER: Inhibition of human ML-2 cell growth in a cell viability assay.

MC116 = type: functional, cell-based; conditions: Homo sapiens
Description: SANGER: Inhibition of human MC116 cell growth in a cell viability assay.

OCUB-M = type: functional, cell-based, Homo sapiens; conditions: Homo sapiens, OCUB-M
Description: SANGER: Inhibition of human OCUB-M cell growth in a cell viability assay.

MPP-89 = type: functional, cell-based, Homo sapiens; conditions: Homo sapiens, MPP-89
Description: SANGER: Inhibition of human MPP-89 cell growth in a cell viability assay.

KP-N-YS = type: functional, cell-based; conditions: Homo sapiens
Description: SANGER: Inhibition of human KP-N-YS cell growth in a cell viability assay.

OVCAR-4 = type: functional, cell-based, Homo sapiens; conditions: Homo sapiens, OVCAR-4
Description: SANGER: Inhibition of human OVCAR-4 cell growth in a cell viability assay.

NOS-1 = type: functional, cell-based, Homo sapiens; conditions: Homo sapiens, NOS-1
Description: SANGER: Inhibition of human NOS-1 cell growth in a cell viability assay.

NCI-H510A = type: functional, cell-based; conditions: Homo sapiens
Description: SANGER: Inhibition of human NCI-H510A cell growth in a cell viability assay.

LB2518-MEL = type: functional, cell-based, Homo sapiens; conditions: Homo sapiens, LB2518-MEL
Description: SANGER: Inhibition of human LB2518-MEL cell growth in a cell viability assay.

8-MG-BA = type: functional, cell-based, Homo sapiens; conditions: Homo sapiens, 8-MG-BA
Description: SANGER: Inhibition of human 8-MG-BA cell growth in a cell viability assay.

SH-4 = type: functional, cell-based, Homo sapiens; conditions: Homo sapiens, SH-4
Description: SANGER: Inhibition of human SH-4 cell growth in a cell viability assay.

MZ1-PC = type: functional, cell-based, Homo sapiens; conditions: Homo sapiens, MZ1-PC
Description: SANGER: Inhibition of human MZ1-PC cell growth in a cell viability assay.

ES8 = type: functional, cell-based, Homo sapiens; conditions: Homo sapiens, ES8
Description: SANGER: Inhibition of human ES8 cell growth in a cell viability assay.

MOLT-16 = type: functional, cell-based; conditions: Homo sapiens
Description: SANGER: Inhibition of human MOLT-16 cell growth in a cell viability assay.

EW-13 = type: functional, cell-based; conditions: Homo sapiens
Description: SANGER: Inhibition of human EW-13 cell growth in a cell viability assay.

LB1047-RCC = type: functional, cell-based, Homo sapiens; conditions: Homo sapiens, LB1047-RCC
Description: SANGER: Inhibition of human LB1047-RCC cell growth in a cell viability assay.

HC-1 = type: functional, cell-based; conditions: Homo sapiens
Description: SANGER: Inhibition of human HC-1 cell growth in a cell viability assay.

KGN = type: functional, cell-based, Homo sapiens; conditions: Homo sapiens, KGN
Description: SANGER: Inhibition of human KGN cell growth in a cell viability assay.

HH = type: functional, cell-based; conditions: Homo sapiens
Description: SANGER: Inhibition of human HH cell growth in a cell viability assay.

OS-RC-2 = type: functional, cell-based, Homo sapiens; conditions: Homo sapiens, OS-RC-2
Description: SANGER: Inhibition of human OS-RC-2 cell growth in a cell viability assay.

RXF 393 = type: functional, cell-based; conditions: Homo sapiens
Description: SANGER: Inhibition of human RXF393 cell growth in a cell viability assay.

NOMO-1 = type: functional, cell-based; conditions: Homo sapiens
Description: SANGER: Inhibition of human NOMO-1 cell growth in a cell viability assay.

MLMA = type: functional, cell-based, Homo sapiens; conditions: Homo sapiens, MLMA
Description: SANGER: Inhibition of human MLMA cell growth in a cell viability assay.

## C=C1C(=O)O[C@@H]2C3O[C@]3(C)CC/C=C(\C)CC[C@@H]12 (some centres undefined)
KARPAS-45
  IC50: > 5 µM
VA-ES-BJ
  IC50: > 5 µM
NCI-H226
  IC50: > 5 µM
CTV-1
  IC50: > 5 µM
KS-1
  IC50: > 5 µM
IST-SL1
  IC50: > 5 µM
KE-37
  IC50: > 5 µM
KU812 cell line
  IC50: > 5 µM
ML-2
  IC50: > 5 µM
MC116
  IC50: > 5 µM
OCUB-M
  IC50: > 5 µM
MPP-89
  IC50: > 5 µM
KP-N-YS
  IC50: > 5 µM
OVCAR-4
  IC50: > 5 µM
NOS-1
  IC50: > 5 µM
NCI-H510A
  IC50: > 5 µM
LB2518-MEL
  IC50: > 5 µM
8-MG-BA
  IC50: > 5 µM
SH-4
  IC50: > 5 µM
MZ1-PC
  IC50: > 5 µM
ES8
  IC50: > 5 µM
MOLT-16
  IC50: > 5 µM
EW-13
  IC50: > 5 µM
LB1047-RCC
  IC50: > 5 µM
HC-1
  IC50: > 5 µM
KGN
  IC50: > 5 µM
HH
  IC50: > 5 µM
OS-RC-2
  IC50: > 5 µM
RXF 393
  IC50: > 5 µM
NOMO-1
  IC50: > 5 µM
MLMA
  IC50: > 5 µM

## CC1=C2C[C@H]3[C@@H](CC=C4C[C@@H](O)CC[C@@]43C)[C@@H]2CC[C@]12O[C@@H]1C[C@H](C)CN[C@H]1[C@H]2C [CYCLOPAMINE]
KARPAS-45
  IC50: > 16 µM
VA-ES-BJ
  IC50: > 16 µM
NCI-H226
  IC50: > 16 µM
CTV-1
  IC50: > 16 µM
KS-1
  IC50: > 16 µM
IST-SL1
  IC50: > 16 µM
KE-37
  IC50: > 16 µM
KU812 cell line
  IC50: > 16 µM
ML-2
  IC50: > 16 µM
MC116
  IC50: > 16 µM
OCUB-M
  IC50: > 16 µM
MPP-89
  IC50: > 16 µM
KP-N-YS
  IC50: > 16 µM
OVCAR-4
  IC50: > 16 µM
NOS-1
  IC50: > 16 µM
NCI-H510A
  IC50: > 16 µM
LB2518-MEL
  IC50: > 16 µM
8-MG-BA
  IC50: 13.1 µM
SH-4
  IC50: > 16 µM
MZ1-PC
  IC50: > 16 µM
ES8
  IC50: > 16 µM
MOLT-16
  IC50: > 16 µM
EW-13
  IC50: > 16 µM
LB1047-RCC
  IC50: > 16 µM
HC-1
  IC50: > 16 µM
KGN
  IC50: > 16 µM
HH
  IC50: > 16 µM
OS-RC-2
  IC50: 5.87 µM
RXF 393
  IC50: > 16 µM
NOMO-1
  IC50: > 16 µM
MLMA
  IC50: > 16 µM

## CS(=O)(=O)CCNCc1ccc(-c2ccc3ncnc(Nc4ccc(OCc5cccc(F)c5)c(Cl)c4)c3c2)o1 [LAPATINIB]
KARPAS-45
  IC50: > 2 µM
VA-ES-BJ
  IC50: > 2 µM
NCI-H226
  IC50: > 2 µM
CTV-1
  IC50: > 2 µM
KS-1
  IC50: > 2 µM
IST-SL1
  IC50: > 2 µM
KE-37
  IC50: > 2 µM
KU812 cell line
  IC50: > 2 µM
ML-2
  IC50: > 2 µM
MC116
  IC50: > 2 µM
OCUB-M
  IC50: 0.0574 µM
MPP-89
  IC50: > 2 µM
KP-N-YS
  IC50: > 2 µM
OVCAR-4
  IC50: > 2 µM
NOS-1
  IC50: > 2 µM
NCI-H510A
  IC50: > 2 µM
LB2518-MEL
  IC50: > 2 µM
8-MG-BA
  IC50: > 2 µM
SH-4
  IC50: > 2 µM
MZ1-PC
  IC50: > 2 µM
ES8
  IC50: > 2 µM
MOLT-16
  IC50: > 2 µM
EW-13
  IC50: > 2 µM
LB1047-RCC
  IC50: > 2 µM
HC-1
  IC50: > 2 µM
KGN
  IC50: > 2 µM
HH
  IC50: > 2 µM
OS-RC-2
  IC50: 1.99 µM
RXF 393
  IC50: > 2 µM
NOMO-1
  IC50: > 2 µM
MLMA
  IC50: > 2 µM

## CCc1nc(N)nc(N)c1-c1ccc(Cl)cc1 [PYRIMETHAMINE]
KARPAS-45
  IC50: > 20 µM
VA-ES-BJ
  IC50: 15.2 µM
NCI-H226
  IC50: > 20 µM
CTV-1
  IC50: 2.48 µM
KS-1
  IC50: > 20 µM
IST-SL1
  IC50: 16.1 µM
KE-37
  IC50: 10.2 µM
KU812 cell line
  IC50: 15.6 µM
ML-2
  IC50: 11.5 µM
MC116
  IC50: 17.9 µM
OCUB-M
  IC50: > 20 µM
MPP-89
  IC50: > 20 µM
KP-N-YS
  IC50: > 20 µM
OVCAR-4
  IC50: 4.15 µM
NOS-1
  IC50: 6.66 µM
NCI-H510A
  IC50: > 20 µM
LB2518-MEL
  IC50: > 20 µM
8-MG-BA
  IC50: > 20 µM
SH-4
  IC50: > 20 µM
MZ1-PC
  IC50: > 20 µM
ES8
  IC50: 0.897 µM
MOLT-16
  IC50: 15.1 µM
EW-13
  IC50: > 20 µM
LB1047-RCC
  IC50: > 20 µM
HC-1
  IC50: 5.65 µM
KGN
  IC50: > 20 µM
HH
  IC50: > 20 µM
OS-RC-2
  IC50: 2.61 µM
RXF 393
  IC50: > 20 µM
NOMO-1
  IC50: > 20 µM
MLMA
  IC50: > 20 µM
